We go through 16 compounds from BindingDB's records for doi:10.1016/j.bmc.2018.06.029 (East China University of Science & Technology, 2018).

Usually IC50 stands for the concentration at which inhibition is half-maximal. Read a low IC50 as greater potency in that assay.

The target in the assay is Tyrosine-protein kinase SYK (Homo sapiens) (UniProt P43405). The assay can be described thus: Inhibition of SYK (unknown origin) using FAM-labeled peptide as substrate preincubated for 10 mins followed by substrate addition measured after 25 mins.
Compound `COc1cc(Nc2nc(N3CCC(NC(=O)c4ccc(C(=O)O)cn4)C3)nc3c2COC3)cc(OC)c1OC` (stereo unspecified) registered a half-inhibitory concentration (IC50) of 14.2 µM.

`COCCCNc1nc(N2CCC(NC(=O)c3ccc(C(=O)O)cn3)C2)nc2c1COC2` (stereo unspecified) registered an IC50 of more than 50 µM.

In turn, `CCc1ccc(Nc2nc(N3CCC(NC(=O)c4ccc(C(=O)O)cn4)C3)nc3c2COC3)cc1` (stereo unspecified) registered an IC50 of 19.2 µM.

`COc1ccc(Nc2nc(N3CCC(NC(=O)c4ccc(C(=O)O)cn4)C3)nc3c2COC3)cc1` (stereo unspecified) displayed an IC50 of 32.1 µM.

As for `CCOCCCNc1nc(N2CCC(NC(=O)c3ccc(C(=O)O)cn3)C2)nc2c1COC2` (stereo unspecified), the IC50 is more than 50 µM.

Compound `COc1ccc(Nc2nc(N3CCC(NC(=O)c4ccc(C(=O)O)cn4)C3)nc3c2COC3)cc1OC` (stereo unspecified) returned an IC50 of 23.7 µM.

Consider `Cc1ccc(Nc2nc(N3CCC(NC(=O)c4ccc(C(=O)O)cn4)C3)nc3c2COC3)cc1` (stereo unspecified), for which the IC50 came to 20.9 µM.

As for `O=C(O)c1ccc(C(=O)NC2CCN(c3nc4c(c(NC5CCCCC5)n3)COC4)C2)nc1` (stereo unspecified), 13.5 µM corresponded to half-maximal inhibition (IC50).

`COC(=O)c1ccc(C(=O)NC2CCN(c3nc4c(c(Nc5ccc(OC)c(OC)c5)n3)CCC4)C2)cc1` (stereo unspecified) gave an IC50 of more than 50 µM.

As to `CCCCCNc1nc(N2CCC(NC(=O)c3ccc(C(=O)O)cn3)C2)nc2c1COC2` (stereo unspecified), the IC50 was more than 50 µM.

Regarding `O=C(O)c1ccc(C(=O)NC2CCN(c3nc4c(c(Nc5ccc6c(c5)OCCO6)n3)COC4)C2)nc1` (stereo unspecified), 20.3 µM corresponded to half-maximal inhibition (IC50).

On to `Cc1ccc(Nc2nc(N3CCC(NC(=O)c4ccc(C(=O)O)cn4)C3)nc3c2COC3)cc1C` (stereo unspecified), for which 15.6 µM corresponded to half-maximal inhibition (IC50).

Consider `CCCCCCNc1nc(N2CCC(NC(=O)c3ccc(C(=O)O)cn3)C2)nc2c1COC2` (stereo unspecified), for which half-maximal inhibition (IC50) was put at 9.7 µM.

In turn, `COc1ccc(Nc2nc(N3CCC(NC(=O)c4ccc(C(=O)O)cc4)C3)nc3c2CCC3)cc1OC` (stereo unspecified) came in with an IC50 of 25.3 µM.

The compound `COc1cc(Nc2nc(N3CCC(NC(=O)c4ccc(C(=O)O)cn4)C3)nc3c2COC3)cc(OC)c1` (stereo unspecified) came in with an IC50 of 20.9 µM.

Turning to `CCCCCCCNc1nc(N2CCC(NC(=O)c3ccc(C(=O)O)cn3)C2)nc2c1COC2` (stereo unspecified), the half-inhibitory concentration (IC50) is 11.4 µM.
